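Method: 48-hour compound exposure of cells in 96-well plates, five concentrations, linear interpolation of endpoints. TGI: concentration producing complete growth inhibition.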
Assays:
Test in all cases: NCI-60 cell line screen, 48 h
[1] = tested on: K-562 leukemia
[2] = tested on: SN12C renal
[3] = tested on: A549 NSCLC
[4] = tested on: M14 melanoma
[5] = tested on: LOX IMVI melanoma
[6] = tested on: MDA-MB-231 breast
[7] = tested on: 786-0 renal
[8] = tested on: MOLT-4 leukemia
[9] = tested on: SW-620 colon
[10] = tested on: SF-295 CNS
[11] = tested on: SF-268 CNS
[12] = tested on: IGROV1 ovarian
[13] = tested on: CAKI-1 renal
[14] = tested on: HCT-116 colon
[15] = tested on: HL-60(TB) leukemia
[16] = tested on: UO-31 renal
[17] = tested on: HT29 colon
[18] = tested on: OVCAR-4 ovarian
[19] = tested on: SK-MEL-2 melanoma
[20] = tested on: HOP-92 NSCLC

| Compound | TGI [1] | TGI [2] | TGI [3] | TGI [4] | TGI [5] | TGI [6] | TGI [7] | TGI [8] | TGI [9] | TGI [10] | TGI [11] | TGI [12] | TGI [13] | TGI [14] | TGI [15] | TGI [16] | TGI [17] | TGI [18] | TGI [19] | TGI [20] |
| --- | --- | --- | --- | --- | --- | --- | --- | --- | --- | --- | --- | --- | --- | --- | --- | --- | --- | --- | --- | --- |
| CNC(=O)N1CN(c2ccccc2)C2(CCN(Cc3ccccc3)CC2)C1=O | > 100 µM | > 100 µM | > 100 µM | > 100 µM | > 100 µM | > 100 µM | > 100 µM | 46.8 µM | > 100 µM | > 100 µM | > 100 µM | > 100 µM | > 100 µM | > 100 µM | > 100 µM | > 100 µM | > 100 µM | – | – | – |
| O=C(O)c1ccccc1/C=C1/Cc2ccc3c(c2C1=O)CCC3 | > 100 µM | > 100 µM | > 100 µM | > 100 µM | 39.5 µM | – | > 100 µM | > 100 µM | > 100 µM | > 100 µM | > 100 µM | > 100 µM | > 100 µM | > 100 µM | 48 µM | > 100 µM | > 100 µM | > 100 µM | 44.9 µM | 80.8 µM |
| CC(C)(C)OC(=O)NCCC1CNc2ccccc21 (centres undefined) | > 100 µM | – | > 100 µM | > 100 µM | – | > 100 µM | > 100 µM | > 100 µM | > 100 µM | > 100 µM | > 100 µM | > 100 µM | > 100 µM | > 100 µM | – | > 100 µM | > 100 µM | > 100 µM | > 100 µM | > 100 µM |
| CCOP(=O)(Nc1ccc(-c2ccc(N)cc2)cc1)OCC | > 100 µM | – | > 100 µM | > 100 µM | – | > 100 µM | > 100 µM | > 100 µM | – | > 100 µM | > 100 µM | > 100 µM | > 100 µM | > 100 µM | – | > 100 µM | > 100 µM | > 100 µM | > 100 µM | > 100 µM |
| COC(=O)[C@@H]1C[C@]2(Br)c3ccccc3N(S(=O)(=O)c3ccccc3)[C@@H]2N1C(=O)OC | > 100 µM | > 100 µM | > 100 µM | – | – | > 100 µM | > 100 µM | > 100 µM | > 100 µM | – | > 100 µM | > 100 µM | > 100 µM | > 100 µM | > 100 µM | > 100 µM | > 100 µM | > 100 µM | > 100 µM | > 100 µM |
| O=S1(=O)c2ccccc2N2C(c3ccccc3)=NOC2(c2ccccc2)CC1c1ccc(Br)cc1 (centres undefined) | > 100 µM | > 100 µM | > 100 µM | > 100 µM | > 100 µM | > 100 µM | > 100 µM | > 100 µM | > 100 µM | > 100 µM | > 100 µM | > 100 µM | – | > 100 µM | > 100 µM | > 100 µM | > 100 µM | > 100 µM | > 100 µM | > 100 µM |
| CN(C)/C=C/c1c2c(nc3ccccc13)C(=O)c1cccnc1C2=O | 3.75 µM | 2.57 µM | 2.59 µM | 0.597 µM | – | > 100 µM | 1.33 µM | 6.98 µM | 1.48 µM | 1.62 µM | 4.02 µM | 4.16 µM | > 38.7 µM | 0.697 µM | 2.53 µM | 3.02 µM | 5.15 µM | 4.01 µM | 4.1 µM | 11.5 µM |
| Cc1cc(C#N)c(Nc2ccc(F)cc2[N+](=O)[O-])s1 | > 100 µM | > 100 µM | > 100 µM | > 100 µM | – | 68.8 µM | > 100 µM | > 100 µM | > 100 µM | > 100 µM | > 100 µM | – | > 100 µM | > 100 µM | – | > 100 µM | – | > 100 µM | – | 94.6 µM |
| CC(C)(C)OC(=O)N1CC(C)(C)N2C(=O)C3(CCCO3)C12 (centres undefined) | > 100 µM | > 100 µM | > 100 µM | > 100 µM | > 100 µM | – | > 100 µM | > 100 µM | 30.4 µM | > 100 µM | > 100 µM | > 100 µM | > 100 µM | > 100 µM | > 100 µM | > 100 µM | > 100 µM | > 100 µM | > 100 µM | > 100 µM |
| CC1SC2=NC3=C(c4ccccc4C3=O)C(c3ccccc3Cl)N2C1=O (centres undefined) | > 100 µM | > 100 µM | > 100 µM | > 100 µM | > 100 µM | – | > 100 µM | > 100 µM | > 100 µM | > 100 µM | > 100 µM | > 100 µM | > 100 µM | > 100 µM | > 100 µM | > 100 µM | > 100 µM | > 100 µM | > 100 µM | > 100 µM |
| CC(C)=NOC(=O)OC[C@H]1O[C@@H](n2cnc3c(N)ncnc32)C(O)C1O (some centres undefined) | > 100 µM | > 100 µM | > 100 µM | > 100 µM | > 100 µM | > 100 µM | > 100 µM | > 100 µM | > 100 µM | > 100 µM | > 100 µM | > 100 µM | – | – | > 100 µM | > 100 µM | > 100 µM | > 100 µM | > 100 µM | – |
| O=C1CCCCCCCCCCC1CN1CCOCC1 (centres undefined) | > 100 µM | > 100 µM | > 100 µM | > 100 µM | – | > 100 µM | > 100 µM | > 100 µM | > 100 µM | > 100 µM | > 100 µM | > 100 µM | – | > 100 µM | > 100 µM | > 100 µM | – | > 100 µM | – | > 100 µM |
| CN(CCNC(=O)c1nn(-c2ccc(Cl)cc2Cl)c2c1Cc1ccccc1-2)CCNC(=O)c1nn(-c2ccc(Cl)cc2Cl)c2c1Cc1ccccc1-2 | > 26.3 µM | 20.4 µM | 28.8 µM | 3.46 µM | – | 8.88 µM | 4.47 µM | 6.81 µM | 4.88 µM | 5.19 µM | > 100 µM | > 100 µM | > 47.4 µM | 4.45 µM | 3.57 µM | 7.81 µM | 5.55 µM | > 20 µM | 4.32 µM | 4.88 µM |
